One data set concerns Jurkat cells. Kind of data set: growth rate after taurolidine treatment, Jurkat. It is filed as cell-based, human. As for the experimental part: (§1) FIGS. 9A and 9B depict cell viability and growth rates for Jurkat cell line following taurolidine treatment, in terms of % trypan blue negative cells and % cell number, respectively. Cells were treated with various concentrations of taurolidine for 4 hours in AIM-V+0.01% BCS. After aliquots were collected for LDH assay, the remainder of the culture was rinsed in HBSS and resuspended in RPMI+10% BCS without taurolidine. Counts of trypan blue-negative cells (FIG. 9A), and total cell number (FIG. 9B), were recorded daily thereafter (with the measurement at Day 1 being made immediately after the 4 hour taurolidine treatment). Conditions were: no treatment (open circles); 25 μg/ml taurolidine (closed circles); 50 μg/ml taurolidine (open squares); 100 μg/ml taurolidine (closed squares); and vehicle alone (closed triangles). Doubling times were determined under each condition, and expressed as a percentage of the rate of doubling of untreated cells. These values are located to the right of the growth curves in (FIG. 9B). […]
(§2) HL-60 cells treated with 50 μl taurolidine. In these samples, LDH present in the culture medium was 8.3±2.3% of that released by completely lysed cells, compared with 2.3±0.8% measured in control cultures. […] After 4 hour treatment, cells were rinsed and returned to growth medium and monitored for viability and growth over the following 3 days. […]

A further data set relates to HL-60. The experiment in a line: LDH release (cell membrane integrity), HL-60. In kind it is cell-based, human. The procedure: FIGS. 7A and 7B depict cell viability and growth rates for HL-60 cell line following taurolidine treatment, in terms of % trypan blue negative cells and % cell number, respectively. Cells were treated with various concentrations of taurolidine for 4 hours in AIM-V+0.01% BCS. After aliquots were collected for LDH assay, the remainder of the culture was rinsed in HBSS and resuspended in RPMI+10% BCS without taurolidine. Counts of trypan blue-negative cells (FIG. 7A), and total cell number (FIG. 7B), were recorded daily thereafter (with the measurement at Day 1 being made immediately after the 4 hour taurolidine treatment). Conditions were: no treatment (open circles); 25 μg/ml taurolidine (closed circles); 50 μg/ml taurolidine (open squares); 100 μg/ml taurolidine (closed squares); and vehicle alone (closed triangles). Doubling times were determined under each condition, and expressed as a percentage of the rate of doubling of untreated cells. These values are located to the right of the growth curves in (FIG. 7B). Cells were subcultured when they reached a concentration of 6×10^5 cells/ml. Data are mean±SEM of three experiments.
In these experiments, integrity of cell membranes following taurolidine treatment was assessed by exclusion of trypan blue and by measuring the release of LDH in MM6, K-562, HL-60, and REH cells. Since BCS contains significant amounts of LDH, these experiments were conducted on cells cultured in AIM-V+0.01% BCS. Four hour treatment of cells was conducted in AIM-V containing 0.01% BCS in order to allow subsequent LDH assay without interference from BCS (which occurs in when normal culture medium, containing 10% BCS, is used). Thus, MM6 cells (5×10^5 cells/ml) were treated with taurolidine for four hours in AIM-V+0.01% BCS, after which an aliquot of the cell suspension was removed for measurement of LDH release. A parallel aliquot of cells was lysed by three cycles of freeze/thaw and the quantity of LDH released was taken to be 100%. […]
^a LDH was measured immediately after four hour taurolidine treatment.
In general terms: LDH in the medium is a marker of cell lysis.

For the next data set, the system named is Monocytes. The note with it: 24-hour taurolidine treatment; cited from earlier work.
The test system of a further data set is GM5387 (fibroblasts). The experiment in a line: growth rate (proliferation) after taurolidine treatment, GM5387. In kind it is cell-based, human. The note with it: GM5387, 50 and 100 μg/ml taurolidine. The procedure: as §1, with “11A” for “9A”, “11B” for “9B”, “GM5387” for “Jurkat”, “11A),” for “9A),”, “11B),” for “9B),”, “11B).” for “9B).”
as §2

As for `O=S1(=O)CCN(CN2CCS(=O)(=O)NC2)CN1` [taurolidine, 4,4'-methylenebis(perhydro-1,2,4-thiadiazin 1,1-dioxide)], the “sensitivity of cell growth among cell lines” value in the data set on Jurkat cells is “least affected”. Besides, the “LDH in culture medium, % of that released by completely lysed cells” value with HL-60 (HL-60, control 2.3±0.8%, 240 min) was found to be 8.3±2.3%. Further, the cytotoxicity at 50 µg/mL with HL-60 (Homo sapiens, HL-60, 50 μg/ml, 4 h, read-out: LDH (% of total)) was 5%. In the data set on HL-60 (Homo sapiens, HL-60, 100 μg/ml, 4 h, read-out: LDH (% of total)), the cytotoxicity at 100 µg/mL was 6%. Also, in the data set with Monocytes, the “LDH release by monocytes” value is “no increase in LDH release”. Moreover, in the data set with GM5387 (fibroblasts), the proliferation after treatment entry is on record as “inhibited proliferation”.
